Test results from US5624931A, “Pyrazole derivatives” (Fujisawa Pharmaceutical Co., Ltd., priority 1991, dated 1997).

Columns and labels:
[1] = tested on: Interleukin-1 (IL-1) production, human peripheral blood monocyte; assay: Inhibitory activity on the production of Interleukin-1 (IL-1) in LPS-stimulated purified human peripheral blood monocytes (IL-1 ELISA); format: cell-based; conditions: 48 h, bacterial lipopolysaccharide 1 μg/10^4 cells, 2 days at 37° C., IL-1β ELISA, read-out: IC50 (inhibition of IL-1 production)
Experimental: (a) Inhibitory activity on the production of Interleukin-1 (IL-1)
Purified human peripheral blood monocyte were stimulated with bacterial lipopolysaccharide (1 μg/10^4 cells) in the absence or presence of appropriately diluted test compound for 2 days at 37° C. in a humidified 5% CO2 atmosphere. Culture supernatants were tested for IL-1 ELISA assay.
Test compound was dissolved in absolute DMSO (dimethyl sulfoxide) to achieve 10 mM stock solutions and was subsequently diluted in serum free RPMI1640.
IL-1 levels were quantified by a commercial ELISA kit (Ohtsuka assay, Japan) using a sandwich technique. The sensitivity levels for the detection of IL-1β were 20 pg/ml.
(§1) The inhibitory concentration that caused a 50% inhibition (IC50) was calculated by regression analysis of the dose-response data.

[2] = tested on: tumor necrosis factor (TNF) production, human peripheral blood monocyte; assay: Inhibitory activity on the production of tumor necrosis factor (TNF) in LPS-stimulated purified human peripheral blood monocytes (TNF ELISA); format: cell-based; conditions: 48 h, bacterial lipopolysaccharide 1 μg/10^4 cells, 2 days at 37° C., read-out: IC50 (inhibition of TNF production)
Experimental: (b) Inhibitory activity on the production of tumor necrosis factor (TNF)
Purified human peripheral blood monocyte were stimulated with bacterial lipopolysaccharide (1 μg/10^4 cells) in the absence or presence of appropriately diluted test compound for 2 days at 37° C. in a humidified 5% CO2 atmosphere. Culture supernatants were tested for TNF ELISA assay.
TNF levels were quantified by a commercial ELISA kit (Endogen, Inc. USA) using a sandwich technique. The sensitivity levels for the detection of TNF were 12 pg/ml.
as §1

## Fc1ccc(-c2nn3c(c2-c2ccncc2)NCCC3)cc1 [Example 2-(1), 2-(4-fluorophenyl)-3-(pyridin-4-yl)-4,5,6,7-tetrahydropyrazolo[1,5-a]pyrimidine]
[1]
  IC50: 38 nM
[2]
  IC50: 116 nM
